According to patent US20230374015A1, “INHIBITORS OF FIBROBLAST GROWTH FACTOR RECEPTOR KINASES” (Kinnate Biopharma Inc., priority 2020, published 2023):

Legend:
FGFR2 [1] = target: T1, FGFR2 (Homo sapiens, UniProt P21802); experiment: FGFR2 Kinase Protocol - Condition 1 (Reaction Biology HotSpot radiometric kinase assay); type: biochemical; settings: 20-min incubation of compound with kinase before ATP; poly[Glu:Tyr] (4:1) 0.2 mg/ml; ATP 100 micromolar; 2 hr room temperature
Procedure: Example 1: FGFR2 Kinase Protocol—Condition 1
The Reaction Biology HotSpot assay platform (http://www.reactionbiology.com) was used to measure kinase/inhibitor interactions as described previously (Anastassiadis et al., 2011). In brief, for each reaction, kinase and substrate were mixed in a buffer containing 20 mM HEPES (pH 7.5), 10 mM MgCl2, 1 mM EGTA, 0.02% Brij35, 0.02 mg/mL BSA, 0.1 mM Na3VO4, 2 mM DTT, and 1% DMSO. All compounds were in powder form and freshly solubilized in DMSO for assays. Compounds were then added to each reaction mixture via acoustic dispense using an ECHO 550 nanoliter dispenser. For Human FGFR2 wildtype testing, a peptide substrate, poly[Glu:Tyr] (4:1) was used to promote the reaction at a concentration of 0.2 mg/ml. For Human FGFR2 (V564F) testing, a peptide substrate, poly[Glu:Tyr] (4:1) was used to promote the reaction at a concentration of 0.2 mg/ml. ATP concentration for all assays was maintained at 100 micromolar. Compounds were tested in 10-dose IC50 mode with a 3-fold serial dilution. After a 20-min incubation, ATP (Sigma-Aldrich, St. Louis, MO 63178) and [g33P] ATP (specific activity 10 microCi/microliter) purchased at PerkinElmer (Boston, MA, 02118 Cat #BLU 003H250UC) were added at a final total concentration of […]. Reactions were carried out at room temperature for 2 hr and spotted onto P81 ion exchange cellulose chromatography paper (Reaction Biology). Filter paper was washed in 0.75% phosphoric acid to remove unincorporated ATP. The percent remaining kinase activity relative to a vehicle-containing (DMSO) kinase reaction was calculated for each kinase/inhibitor pair. IC50 values were calculated using Dotmatics Knowledge Solutions Studies curve fitting (Dotmatics, Bishops Stortford, UK, CM23).

FGFR2 [2] = target: T1, FGFR2; experiment: FGFR2 Kinase Protocol - Condition 2 (Reaction Biology HotSpot radiometric kinase assay, no preincubation); type: biochemical; settings: poly[Glu:Tyr] (4:1) 0.2 mg/ml, ATP 100 microM, 2 hr room temperature
Procedure, shortened: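 Radiometric HotSpot format: FGFR2 (wildtype or V564F) with poly[Glu:Tyr] (4:1) at 0.2 mg/ml in HEPES pH 7.5 buffer with 1% DMSO; ATP plus [γ33P]ATP at 100 µM total, added without preincubation. Reactions ran 2 hr at room temperature, then filter-bound. IC50 from 10-dose, 3-fold series versus DMSO control.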

T1 sequence (P21802 22-821): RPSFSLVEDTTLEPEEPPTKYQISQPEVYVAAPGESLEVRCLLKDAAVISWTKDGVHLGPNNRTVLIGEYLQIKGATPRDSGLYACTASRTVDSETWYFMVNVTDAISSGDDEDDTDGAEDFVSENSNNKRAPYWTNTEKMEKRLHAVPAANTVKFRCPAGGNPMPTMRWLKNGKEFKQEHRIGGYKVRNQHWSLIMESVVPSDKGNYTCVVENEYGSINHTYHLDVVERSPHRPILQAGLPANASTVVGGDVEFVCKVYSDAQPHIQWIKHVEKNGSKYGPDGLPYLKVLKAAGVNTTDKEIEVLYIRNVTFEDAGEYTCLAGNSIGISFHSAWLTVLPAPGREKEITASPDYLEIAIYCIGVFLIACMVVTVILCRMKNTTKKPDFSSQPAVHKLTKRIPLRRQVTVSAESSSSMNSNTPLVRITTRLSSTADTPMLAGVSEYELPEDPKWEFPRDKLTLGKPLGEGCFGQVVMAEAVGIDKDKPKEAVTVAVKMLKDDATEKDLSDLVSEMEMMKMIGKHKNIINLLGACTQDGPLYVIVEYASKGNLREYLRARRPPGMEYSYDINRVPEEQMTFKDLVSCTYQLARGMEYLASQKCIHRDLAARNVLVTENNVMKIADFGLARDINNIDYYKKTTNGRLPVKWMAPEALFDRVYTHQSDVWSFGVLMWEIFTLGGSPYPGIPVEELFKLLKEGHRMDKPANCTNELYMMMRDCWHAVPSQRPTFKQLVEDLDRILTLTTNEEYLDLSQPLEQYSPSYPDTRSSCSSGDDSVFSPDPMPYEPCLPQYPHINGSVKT

| SMILES | IC50 (FGFR2 [1]) | IC50 (FGFR2 [2]) |
| --- | --- | --- |
| C=CC(=O)N1C[C@@H](n2nc(C#Cc3c(F)cc4c(nc(C)n4C)c3F)c3c(N)ncnc32)C[C@@H]1COC [Example 12, 1-((2R,4S)-4-(4-amino-3-((4,6-difluoro-1,2-dimethyl-1H-benzo[d]imidazol-5-yl)ethynyl)-1H-pyrazolo[3,4-d]pyrimidin-1-yl)-2-(methoxymethyl)pyrrolidin-1-yl)prop-2-en-1-one] | ≤ 0.1 µM | ≤ 0.1 µM |
| C=CC(=O)N1C[C@@H](n2cc(C#Cc3ccc4c(c3)ncn4C)c3c(N)nccc32)C[C@@H]1COC [Example 27, 1-((2R,4S)-4-(4-amino-3-((1-methyl-1H-benzo[d]imidazol-5-yl)ethynyl)-1H-pyrrolo[3,2-c]pyridin-1-yl)-2-(methoxymethyl)pyrrolidin-1-yl)prop-2-en-1-one] | ≤ 0.1 µM |  |
| C=CC(=O)N1C[C@@H](n2cc(C#Cc3ccc4nc(C)n(C)c4c3)c3c(N)nccc32)C[C@@H]1COC [Example 28] | 1 to 10 µM | 1 to 10 µM |

The next lines start with the values.

| IC50 (FGFR2 [1]) | IC50 (FGFR2 [2]) | SMILES |
| --- | --- | --- |
| ≤ 0.1 µM | ≤ 0.1 µM | C=CC(=O)N1C[C@@H](n2nc(C#Cc3ccc4c(c3)nc(C)n4C)c3c(N)ncnc32)C[C@@H]1COC [Example 3, 1-((2R,4S)-4-(4-amino-3-((1,2-dimethyl-1H-benzo[d]imidazol-5-yl)ethynyl)-1H-pyrazolo[3,4-d]pyrimidin-1-yl)-2-(methoxymethyl)pyrrolidin-1-yl)prop-2-en-1-one] |
| ≤ 0.1 µM | ≤ 0.1 µM | C=CC(=O)N1C[C@@H](n2nc(C#Cc3c(F)cc4c(nc(C)n4C)c3F)c3c(N)nccc32)C[C@@H]1COC [Example 16, 1-((2R,4S)-4-(4-amino-3-((4,6-difluoro-1,2-dimethyl-1H-benzo[d]imidazol-5-yl)ethynyl)-1H-pyrazolo[4,3-c]pyridin-1-yl)-2-(methoxymethyl)pyrrolidin-1-yl)prop-2-en-1-one] |
| ≤ 0.1 µM | 0.1 to 1 µM | C=CC(=O)N1C[C@@H](n2cc(C#Cc3ccc4c(c3)nc(C)n4C)c3c(N)nccc32)C[C@@H]1COC [Example 29, 1-((2R,4S)-4-(4-amino-3-((1,2-dimethyl-1H-benzo[d]imidazol-5-yl)ethynyl)-1H-pyrrolo[3,2-c]pyridin-1-yl)-2-(methoxymethyl)pyrrolidin-1-yl)prop-2-en-1-one] |
| ≤ 0.1 µM | 0.1 to 1 µM | C=CC(=O)N1C[C@@H](n2cc(C#Cc3ccc4c(c3)ncn4C3CC3)c3c(N)nccc32)C[C@@H]1COC [Example 30, 1-((2R,4S)-4-(4-amino-3-((1-cyclopropyl-1H-benzo[d]imidazol-5-yl)ethynyl)-1H-pyrrolo[3,2-c]pyridin-1-yl)-2-(methoxymethyl)pyrrolidin-1-yl)prop-2-en-1-one] |
| ≤ 0.1 µM | 0.1 to 1 µM | C=CC(=O)N1C[C@@H](n2cc(C#Cc3ccc4c(c3)ncn4CC)c3c(N)nccc32)C[C@@H]1COC [Example 31, 1-((2R,4S)-4-(4-amino-3-((1-ethyl-1H-benzo[d]imidazol-5-yl)ethynyl)-1H-pyrrolo[3,2-c]pyridin-1-yl)-2-(methoxymethyl)pyrrolidin-1-yl)prop-2-en-1-one] |
